Data on two compounds can be found in patent US20060142548A1, “Methods of identifying and designing cell surface receptor inhibitors” (priority 2003, published 2006).

For one assay, the target named is T1, αA domain from CD11a (Homo sapiens, UniProt P20701).
T1 sequence (P20701 156-327 limits assumed): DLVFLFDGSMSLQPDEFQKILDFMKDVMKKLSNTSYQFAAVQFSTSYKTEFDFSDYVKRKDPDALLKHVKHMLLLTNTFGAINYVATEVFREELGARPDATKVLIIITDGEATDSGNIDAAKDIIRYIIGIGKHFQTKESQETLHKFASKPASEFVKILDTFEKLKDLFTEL
The settings on record: binding at the strand-F/α7 interface; reference 84; cited from earlier work.

For the next assay, the target named is physiologic ligand. As to the kind of experiment: ligand binding to membrane-bound integrin.

As to `CC[C@H](C)C(=O)O[C@H]1C[C@@H](C)C=C2C=C[C@H](C)[C@H](CC[C@@H]3C[C@@H](O)CC(=O)O3)[C@H]21` [lovastatin], the “effect of binding on integrin activation state” value at αA domain from CD11a was “locks this integrin in the inactive state”.
In the assay with physiologic ligand, “αVβ3 integrin mutant D^126D^127/A^126A^127, membrane-bound (from UniProt P06756 31-1048; P05106 27-788) (receptor)” had a fold increase of binding of 1.5 to 2 fold.
